In ChEMBL document CHEMBL5543109, “Novel β-Hairpin Antimicrobial Peptide Containing the β-Turn Sequence of -NG- and the Tryptophan Zippers Facilitate Self-Assembly into Nanofibers, Exhibiting Excellent Antimicrobial Performance” (J Med Chem, 2024):
Values after ≈ are worked out from the molar mass of the structure shown. Active and inactive are the calls of the source. The calls are words filed in the database; no cut-off is given here.

Key:
[1] = test system: Bacillus subtilis; assay: Antibacterial activity against Bacillus subtilis ATCC 23857 incubated for 18 hrs by broth microdilution method; format: functional
[2] = test system: Staphylococcus epidermidis; assay: Antibacterial activity against Staphylococcus epidermidis ATCC 12228 incubated for 18 hrs by broth microdilution method; format: functional
[3] = test system: Escherichia coli; assay: Antibacterial activity against Escherichia coli ATCC 25922 incubated for 18 hrs by broth microdilution method; format: functional
[4] = test system: Staphylococcus aureus; assay: Bactericidal activity against Staphylococcus aureus ATCC 25923 incubated for 18 hrs by broth microdilution method; format: functional
[5] = test system: Bacillus subtilis; assay: Bactericidal activity against Bacillus subtilis ATCC 23857 incubated for 18 hrs by broth microdilution method; format: functional
[6] = test system: Pseudomonas aeruginosa; assay: Bactericidal activity against Pseudomonas aeruginosa ATCC 27853 incubated for 18 hrs by broth microdilution method; format: functional
[7] = Self-assembly property of compound in PBS assessed as beta-sheet nanofibers formation incubated for 1 hr by Thioflavin T based fluorescence spectrophotometer analysis; format: physicochemical; details: buffer, dose 0.5-1.5 µM
[8] = Self-assembly property of compound in PBS assessed as beta-sheet protofibrils formation at 128 uM incubated for 30 mins by SEM analysis; format: physicochemical; details: buffer, 0.5 h
[9] = Stability in mouse serum assessed as half-life measured upto 48 hrs by RP-HPLC analysis; format: ADME, cell-free
[10] = test system: Staphylococcus aureus; assay: Antibacterial activity against Staphylococcus aureus incubated for 18 hrs in presence of ZnCl2 by broth microdilution method; format: functional, organism-based
[11] = test system: Staphylococcus aureus; assay: Antibacterial activity against Staphylococcus aureus incubated for 18 hrs in presence of CaCl2 by broth microdilution method; format: functional, organism-based
[12] = test system: Staphylococcus aureus; assay: Antibacterial activity against Staphylococcus aureus incubated for 18 hrs in presence of FeCl3 by broth microdilution method; format: functional, organism-based
[13] = test system: Escherichia coli; assay: Antibacterial activity against Escherichia coli at 2 times MIC preincubated with 256 ug/ml LPS for 1 hr followed by bacterial addition and measured after 5 hrs; format: functional, organism-based; details: time 6.0 hrs
[14] = test system: Cell membrane; assay: Induction of cytoplasmic membrane depolarization in Staphylococcus aureus at 2 to 4 times MIC by DiSC3-5 dye based fluorescence method; format: cell membranes
[15] = test system: Staphylococcus aureus; assay: Induction of morphological change in Staphylococcus aureus assessed as bacterial collapse at 2 times MIC incubated for 30 mins by SEM analysis; format: functional, organism-based
[16] = test system: Cell membrane; assay: Induction of cell membrane disruption in Staphylococcus aureus assessed as PI uptake at 2 times MIC incubated for 2 hrs by PI staining based flow cytometry analysis (reference value: 15.9%); format: cell membranes
[17] = test system: Staphylococcus aureus; assay: Additive antibacterial activity against Staphylococcus aureus 125 assessed as fractional inhibitory concentration index incubated for 18 hrs in presence of cefotaxime by checkerboard assay; format: functional
[18] = test system: Staphylococcus aureus; assay: Synergistic antibacterial activity against methicillin resistant Staphylococcus aureus 75 assessed as fractional inhibitory concentration index incubated for 18 hrs in presence of cefotaxime by checkerboard assay; format: functional
[19] = test system: Klebsiella pneumoniae; assay: Synergistic antibacterial activity against Klebsiella pneumoniae assessed as fractional inhibitory concentration index incubated for 18 hrs in presence of rifampin by checkerboard assay; format: functional
[20] = test system: Escherichia coli; assay: Additive antibacterial activity against rifampicin resistant Escherichia coli assessed as fractional inhibitory concentration index incubated for 18 hrs in presence of rifampin by checkerboard assay; format: functional
[21] = test system: Staphylococcus aureus; assay: Synergistic antibacterial activity against methicillin resistant Staphylococcus aureus 75 assessed as fractional inhibitory concentration index incubated for 18 hrs in presence of kanamycin by checkerboard assay; format: functional
[22] = test system: Staphylococcus aureus; assay: Additive antibacterial activity against Staphylococcus aureus 794 assessed as fractional inhibitory concentration index incubated for 18 hrs in presence of kanamycin by checkerboard assay; format: functional
[23] = test system: Escherichia coli; assay: Antibacterial activity against kanamycin resistant Escherichia coli assessed as fractional inhibitory concentration index incubated for 18 hrs in presence of kanamycin by checkerboard assay; format: functional
[24] = test system: Staphylococcus aureus; assay: Additive antibacterial activity against methicillin resistant Staphylococcus aureus 113 assessed as fractional inhibitory concentration index incubated for 18 hrs in presence of streptomycin by checkerboard assay; format: functional
[25] = test system: Staphylococcus aureus; assay: Additive antibacterial activity against Staphylococcus aureus 794 assessed as fractional inhibitory concentration index incubated for 18 hrs in presence of streptomycin by checkerboard assay; format: functional
[26] = test system: Escherichia coli; assay: Antibacterial activity against kanamycin resistant Escherichia coli assessed as fractional inhibitory concentration index incubated for 18 hrs in presence of streptomycin by checkerboard assay; format: functional
[27] = test system: Staphylococcus aureus; assay: Additive antibacterial activity against methicillin resistant Staphylococcus aureus 75 assessed as fractional inhibitory concentration index incubated for 18 hrs in presence of gentamycin by checkerboard assay; format: functional
[28] = test system: Escherichia coli; assay: Synergistic antibacterial activity against kanamycin resistant Escherichia coli assessed as fractional inhibitory concentration index incubated for 18 hrs in presence of gentamycin by checkerboard assay; format: functional
[29] = test system: Staphylococcus aureus; assay: Additive antibacterial activity against Staphylococcus aureus assessed as fractional inhibitory concentration index incubated for 18 hrs in presence of bacitracin by checkerboard assay; format: functional
[30] = test system: Escherichia coli; assay: […] antibacterial activity against Escherichia coli assessed as fractional inhibitory concentration index incubated for 18 hrs in presence of polymyxin B by checkerboard assay; format: functional
[31] = test system: Pseudomonas aeruginosa; assay: Synergistic antibacterial activity against Pseudomonas aeruginosa assessed as fractional inhibitory concentration index incubated for 18 hrs in presence of polymyxin B by checkerboard assay; format: functional
[32] = Acute toxicity in mouse assessed as inflammatory cell infiltration in lung at 230.5 mg/kg, ip by H and E staining based assay; format: organism-based; details: in vivo
[33] = Acute toxicity in mouse assessed as renal cell necrosis at 230.5 mg/kg, ip by H and E staining based assay; format: organism-based; details: in vivo
[34] = Acute toxicity in mouse assessed as tissue hemorrhage at 230.5 mg/kg, ip by H and E staining based assay; format: organism-based; details: in vivo
[35] = test system: Escherichia coli; assay: Antibacterial activity against Escherichia coli infected in BALB/c mouse systemic infection model assessed as reduction in spleen bacterial load at 5 mg/kg, ip measured after 24 hrs; format: functional, organism-based
[36] = test system: Staphylococcus aureus; assay: Antibacterial activity against Staphylococcus aureus 794 infected in BALB/c mouse skin wound infection model assessed as reduction in wound bacterial load at 1 mg/ml, ip administered at 1 hr interval for total 6 treatment and measured after 1 hr post last dose in presence of vancomycin; format: functional, organism-based; details: time 7.0 hrs
[37] = test system: Staphylococcus aureus; assay: Antibacterial activity against Staphylococcus aureus 794 infected in BALB/c mouse skin wound infection model assessed as reduction in wound area at 1 mg/ml, ip pre-infected with bacteria for 24 hrs followed by compound addition and measured on day 5; format: functional, organism-based; details: time 5.0 day
[38] = test system: Staphylococcus aureus; assay: Antibacterial activity against Staphylococcus aureus 794 infected in BALB/c mouse skin wound infection model assessed as wound healing by measuring detached scab at 1 mg/ml, ip pre-infected with bacteria for 24 hrs followed by compound addition and measured on day 7; format: functional, organism-based; details: time 7.0 day
[39] = test system: Staphylococcus aureus; assay: Antibacterial activity against Staphylococcus aureus 794 infected in BALB/c mouse skin wound infection model assessed as reduction in wound area at 1 mg/ml, ip pre-infected with bacteria for 24 hrs followed by compound addition and measured on day 5 in presence of vancomycin; format: functional, organism-based; details: time 5.0 day
[40] = Toxicity in BALB/c mouse infected with Staphylococcus aureus 794 assessed as cell necrosis at 1 mg/ml, ip pre-infected with bacteria for 24 hrs followed by compound addition and measured after 13 days in presence of vancomycin by H and E staining based histopathological analysis; format: organism-based; details: in vivo, 312 h, time 13 day
[41] = test system: Staphylococcus aureus; assay: Antibacterial activity against Staphylococcus aureus incubated for 18 hrs by broth microdilution method; format: functional
[42] = test system: Staphylococcus aureus; assay: Antibacterial activity against rifampicin resistant Staphylococcus aureus incubated for 18 hrs by broth microdilution method; format: functional

**Q.** Which MIC [1] does the source give for NCCCC[C@@H](NC(=O)[C@H](N)Cc1c[nH]c2ccccc12)C(=O)N[C@H](Cc1c[nH]c2ccccc12)C(=O)N[C@H](CCCCN)C(=O)N[C@H](Cc1c[nH]c2ccccc12)C(=O)N[C@@H](CC(N)=O)C(=O)NCC(=O)N[C@H](Cc1c[nH]c2ccccc12)C(=O)N[C@H](CCCCN)C(=O)N[C@H](Cc1c[nH]c2ccccc12)C(=O)N[C@H](CCCCN)C(=O)N[C@H](Cc1c[nH]c2ccccc12)C(N)=O here?
**A.** 2 µM (≈ 3.64 µg/mL)

**Q.** What about the MIC [2] of the same compound?
**A.** 4 µM (≈ 7.27 µg/mL)

**Q.** And the MIC [3]?
**A.** 8 µM (≈ 14.5 µg/mL)

**Q.** What about the MBC [4] of the same compound?
**A.** 8 µM (≈ 14.5 µg/mL)

**Q.** What about the MBC [5] of the same compound?
**A.** 4 µM (≈ 7.27 µg/mL)

**Q.** And the MBC [6]?
**A.** 32 µM (≈ 58.2 µg/mL)

**Q.** What about the Activity [7] of the same compound?
**A.** Dose-Dependent Effect

**Q.** And the Activity [8]?
**A.** Active

**Q.** And the half-life [9]?
**A.** > 48 h

**Q.** What about the Activity [10] of the same compound?
**A.** Active

**Q.** What about the Activity [11] of the same compound?
**A.** Active

**Q.** And the Activity [12]?
**A.** Active

**Q.** And the Activity [13]?
**A.** inactive

**Q.** And the Activity [14]?
**A.** Active

**Q.** And the Activity [15]?
**A.** Active

**Q.** What about the Activity [16] of the same compound?
**A.** 96.6%

**Q.** And the “fractional inhibitory concentration index (FICI)” value [17]?
**A.** 0.75

**Q.** What about the “fractional inhibitory concentration index (FICI)” value [18] of the same compound?
**A.** 0.375

**Q.** And the “fractional inhibitory concentration index (FICI)” value [19]?
**A.** 0.5

**Q.** What about the “fractional inhibitory concentration index (FICI)” value [20] of the same compound?
**A.** 0.563

**Q.** And the “fractional inhibitory concentration index (FICI)” value [21]?
**A.** 0.5

**Q.** What about the “fractional inhibitory concentration index (FICI)” value [22] of the same compound?
**A.** 0.563

**Q.** What about the “fractional inhibitory concentration index (FICI)” value [23] of the same compound?
**A.** 0.188

**Q.** And the “fractional inhibitory concentration index (FICI)” value [24]?
**A.** 0.563

**Q.** What about the “fractional inhibitory concentration index (FICI)” value [25] of the same compound?
**A.** 0.625

**Q.** And the “fractional inhibitory concentration index (FICI)” value [26]?
**A.** 0.188

**Q.** And the “fractional inhibitory concentration index (FICI)” value [27]?
**A.** 0.625

**Q.** What about the “fractional inhibitory concentration index (FICI)” value [28] of the same compound?
**A.** 0.188

**Q.** What about the “fractional inhibitory concentration index (FICI)” value [29] of the same compound?
**A.** 0.563

**Q.** And the “fractional inhibitory concentration index (FICI)” value [30]?
**A.** 0.375

**Q.** And the “fractional inhibitory concentration index (FICI)” value [31]?
**A.** 0.188

**Q.** And the Activity [32]?
**A.** Toxic

**Q.** What about the Activity [33] of the same compound?
**A.** Toxic

**Q.** And the Activity [34]?
**A.** Toxic

**Q.** What about the Activity [35] of the same compound?
**A.** Active

**Q.** What about the Activity [36] of the same compound?
**A.** Active

**Q.** And the Activity [37]?
**A.** Active

**Q.** What about the Activity [38] of the same compound?
**A.** Active

**Q.** And the Activity [39]?
**A.** Active

**Q.** What about the Activity [40] of the same compound?
**A.** Toxic

**Q.** And the MIC [41]?
**A.** 4 µM (≈ 7.27 µg/mL)

**Q.** And the MIC [42]?
**A.** 8 µM (≈ 14.5 µg/mL)
